Test [1] deals with F1174L-mutated ALK hairpin oligonucleotide (DNA, hairpin) AAATTAAACCACCAGAACATTTTTATGTTCTGGTGGTTTAATTT
Description: SPR (Biacore X100), kinetic fit with mass transfer. To be noted: 150 mM NaCl; HBS-EP: 10 mM HEPES, 3 mM EDTA, 0.005% P20, 0.1% DMSO, 25 °C. In general terms: SPR reads the build-up and loss of mass on a sensor chip optically.

Test [2] has as its system ALK wild-type (WT) hairpin oligonucleotide (DNA, hairpin) AAATTCAACCACCAGAACATTTTTATGTTCTGGTGGTTGAATTT
Description: SPR (Biacore X100), kinetic fit with mass transfer. To be noted: 150 mM NaCl; HBS-EP: 10 mM HEPES, 3 mM EDTA, 0.005% P20, 0.1% DMSO, 25 °C.

Turning to `CC(=O)Nc1cc(C(=O)Nc2cc(C(=O)Nc3cc(C(=O)Nc4cc(C(=O)NCCC(=O)Nc5cc(C(=O)Nc6cc(C(=O)Nc7cc(C(=O)NCCCC(=O)Nc8cn(C)c(C(=O)Nc9cn(C)c(C(=O)NCCC(=O)Nc%10cn(C)c(C(=O)Nc%11cn(C)c(C(=O)Nc%12cc(C(=O)Nc%13ccc%14cc(C(=O)NCCCN(C)C)[nH]c%14c%13)n(C)c%12)n%11)n%10)n9)n8)n(C)c7)n(C)c6)n(C)c5)n(C)c4)n(C)c3)n(C)c2)n(C)c1`, the KD in test [1] is 6.37 ± 0.41 × 10^-8 M; in test [2] it was 58.20 ± 1.62 × 10^-8 M.

(Values after PMC8483358 (2021).)
